We go through seven compounds from patent US8247211B2, “Glycopeptide antibiotics” (American Cyanamid Company, priority 2001, dated 2012).

≈ marks a conversion by molar mass, not a printed value. Where “and” joins values, the source holds several entries; their conditions need not be identical. Equal entries are not always repeated.

Data set [1] is classed as in vivo. Conditions: mice, 20 mg/kg intravenously daily for 9 days, serum on day 10. The procedure:
20-day-old CD-1 mice were divided into a vehicle control group (5 mice) and a treatment group (5 mice). Samples of glycopeptide antibiotics were administered at 20 mg/kg intravenously daily for 9 days. Animals were necropsied on day 10 Sera were analyzed for BUN (blood urea nitrogen), creatinine, AST (aspartic aminotransferase), and ALT (alanine aminotransferase) by routine, standard, automated methods using an Hitachi 747 chemistry analyzer.

The next data set concerns Staphylococcus sp. The experiment in a line: In vitro antibacterial evaluation: minimum inhibitory concentration (MIC), broth dilution method. The format is cell-based. Conditions: for MIC Staphylococcus aureus-SMITH (GC 4543): strain GC 4543; for MIC Staphylococcus haemolyticus (GC 4546): strain GC 4546; for MIC Coagulase Negative Staphylococcus (GC 4547): strain GC 4547; for MIC Coagulase Negative Staphylococcus (GC 4548): strain GC 4548; for MIC Coagulase Negative Staphylococcus (GC 4549): strain GC 4549; for MIC Coagulase Negative Staphylococcus (GC 4551): strain GC 4551; for MIC Coagulase Negative Staphylococcus (GC 6257): strain GC 6257. A digest of the protocol: (§1)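 Test strains, among them recent clinical isolates carrying methicillin, penicillin and/or vancomycin resistance, were inoculated at 5×10^5 CFU/mL. A broth dilution series spanning 64-0.06 μg/mL in Muller-Hinton II […] (NCCLS M7-A2) defined the MIC as the lowest growth-inhibiting concentration.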
In general terms: In broth dilution the organism is exposed to a series of concentrations in liquid medium.

A further data set deals with Enterococcus sp. The description is as above. The settings on record: broth dilution, 5×10^5 CFU/mL, 18 hours at 35° C. The format is cell-based. In a few lines:
as §1

The next data set relates to Escherichia coli. The data set is described as above. The format is cell-based. Conditions: 5×10^5 CFU/mL, 18 hours at 35° C. A digest of the protocol:
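First, organisms are seeded at 5×10^5 CFU/mL into Muller-Hinton II […]. Next, antibiotic is applied across 64-0.06 μg/mL by broth dilution (NCCLS M7-A2). Finally, the lowest inhibitory concentration is recorded as MIC.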

A further data set deals with Streptococcus sp. Described as above. The format is cell-based. Conditions: broth dilution, 5×10^5 CFU/mL, 18 hours at 35° C. A digest of the protocol: as §1
For data set [2], the system named is Enterococcus faecalis (GC 6189), vancomycin resistant strain. The experiment in a line: Acute lethal infection in mice (ED50). The format is in vivo. The settings on record: female CD-1 mice, intraperitoneal challenge, intravenous dose 30 min. after infection, 7 day survival ratios. A digest of the protocol: (§2)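 Median effective dose is calculated from 7-day survival ratios pooled across three separate tests. Mice (female CD-1) receive an intraperitoneal bacterial challenge in broth or hog gastric mucin, then intravenous drug 30 min later, five animals per dose level.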

For data set [3], the system named is Staphylococcus aureus-SMITH (GC 4543). The experiment in a line: Acute lethal infection in mice (ED50). The format is in vivo. The settings on record: female CD-1 mice, intraperitoneal challenge, intravenous dose 30 min. after infection, 7 day survival ratios. A digest of the protocol:
as §2

Data set [4] is described as follows: Anatomic pathology (heart and kidney histopathology) in mice. The format is in vivo, CD-1 mice. Conditions: 20 mg/kg intravenously daily for 9 days, microscopic histopathology on day 10. In a few lines:
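Juvenile CD-1 mice (20 days old; 5 vehicle, 5 treated) received glycopeptide antibiotic 20 mg/kg i.v. daily for 9 days. Necropsied tissues formalin-fixed, paraffin-embedded, H&E stained and examined microscopically; findings graded slight to severe versus controls.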

Another data set deals with Staphylococcus aureus. The experiment in a line: Zone of inhibition, assay plate Staphylococcus aureus. The format is cell-based. The settings on record: 25 μl of extract per 5 mm well, Nutrient Agar pH 6.8, incubated overnight at 37° C. The method, then: Inoculate 10 mL of Tryptic Soy Broth with a loopful of slant culture, Staphylococcus aureus, and place in a stationary rack at 37° C. After 16-18 hour incubation, the Optical Density (OD) of the culture is read @ A600 nm, using a 1:10 dilution. OD should be between 0.1-0.3, and if not adjust with Tryptic Soy Broth. A 40 mL sample of Nutrient Agar, pH 6.8 is inoculated with 90 μl of S. aureus culture and poured into a sterile petri dish. When the agar has solidified, wells (5 mm) are plated using an automated welling device. Wells are inoculated with 25 μl of extract and incubated overnight at 37° C. Zones of inhibition are measured and recorded the following morning.

Where [5] appears, read: broth dilution, 18 hours at 35° C.

In the case of `CC(c1ccccc1)C1NC(=O)CNC(=O)C(CO)NC(=O)C(C(O)C2CNC(=N)N2C2OC(CO)C(O)C(O)C2O)NC(=O)C(C(O)C2CNC(=N)N2)NC(=O)C(Cc2ccc(OC3OC(CO)C(OC4OC5COC(Cc6ccccc6)OC5C(O)C4O)C(O)C3O)cc2)NC1=O` (stereo not drawn) [Example 102, Cyclo[glycyl-β-methylphenylalanyl-O-[4-O-(4,6-O-phenethylidenehexopyranosyl)-hexopyranosyl]tyrosyl-3-(2-iminoimidazoliclin-4-yl)seryl-3-(3-hexopyranosyl-2-iminoimidazolidin-4-yl)serylseryl]], in [1], the “Clinical Chemistry (Day 10) % of Control, AST” value is on record as “+340%” and the “Clinical Chemistry (Day 10) % of Control, Creatinine” value is recorded as “+100%”. Besides, the “MIC Staphylococcus aureus (ATCC 29213)” value in the data set with Staphylococcus sp. (strain ATCC 29213) lay within 1 to 2 µg/mL. In the data set on Staphylococcus sp. (strain GC 1131), the “MIC Staphylococcus aureus (GC 1131)” value is 2 µg/mL (≈ 1.43 µM). In addition, the “MIC Staphylococcus aureus (GC 3051)” value against Staphylococcus sp. (strain GC 3051) amounted to 1 µg/mL (≈ 0.716 µM). Besides, in the data set with Staphylococcus sp. (strain GC 3053), the “MIC Staphylococcus aureus (GC 3053)” value was 1 to 2 µg/mL. Further, in the data set on Staphylococcus sp. (strain GC 4541), the “MIC Staphylococcus aureus (GC 4541)” value was in the range of 1 to 2 µg/mL. Moreover, the “MIC Staphylococcus aureus (GC 4542)” value in the data set on Staphylococcus sp. (strain GC 4542) is 0.5 to 1 µg/mL. In addition, the “MIC Staphylococcus aureus-SMITH (GC 4543)” value in the data set on Staphylococcus sp. (18 hours at 35° C.) fell in the range of 0.5 to 1 µg/mL. In the data set with Staphylococcus sp. (setting [5]), the “MIC Staphylococcus aureus-SMITH (GC 4543)” value fell in the range of 0.5 to 1 µg/mL, the “MIC Staphylococcus haemolyticus (GC 4546)” value lay in the range of 0.5 to 1 µg/mL, the “MIC Coagulase Negative Staphylococcus (GC 4547)” value stood at 1 µg/mL (≈ 0.716 µM) and the “MIC Coagulase Negative Staphylococcus (GC 4548)” value was in the range of 0.5 to 1 µg/mL. Further, in the data set with Staphylococcus sp. (setting [5]), the “MIC Coagulase Negative Staphylococcus (GC 4549)” value is 0.5 to 1 µg/mL, the “MIC Coagulase Negative Staphylococcus (GC 4551)” value lay in the range of 1 to 2 µg/mL and the “MIC Coagulase Negative Staphylococcus (GC 6257)” value was found to be 0.5 µg/mL (≈ 0.358 µM). The “MIC Staphylococcus aureus (GC 4544)” value with Staphylococcus sp. (strain GC 4544) was 1 to 2 µg/mL. The “MIC Staphylococcus aureus (GC 4545)” value in the data set with Staphylococcus sp. (strain GC 4545) was in the range of 0.5 to 1 µg/mL. In addition, in the data set with Staphylococcus sp., the “MIC Staphylococcus haemolyticus (GC 4546)” value was in the range of 0.5 to 1 µg/mL, the “MIC Coagulase Negative Staphylococcus (GC 4547)” value is 1 µg/mL (≈ 0.716 µM), the “MIC Coagulase Negative Staphylococcus (GC 4548)” value fell in the range of 0.5 to 1 µg/mL and the “MIC Coagulase Negative Staphylococcus (GC 4549)” value is 0.5 to 1 µg/mL. Moreover, in the data set with Staphylococcus sp., the “MIC Coagulase Negative Staphylococcus (GC 4551)” value was 1 to 2 µg/mL and the “MIC Coagulase Negative Staphylococcus (GC 6257)” value came to 0.5 µg/mL (≈ 0.358 µM). Besides, in the data set with Enterococcus sp., the “MIC Enterococccus avium (GC 4558)” value was 2 to 4 µg/mL, the “MIC Enterococccus faecalis (ATCC 29212)” value lay within 2 to 4 µg/mL, the “MIC Enterococccus faecalis (GC 2691)” value is 2 to 4 µg/mL and the “MIC Enterococccus faecalis (GC 3059)” value was in the range of 2 to 4 µg/mL. In addition, in the data set on Enterococcus sp., the “MIC Enterococccus faecalis (GC 4552)” value lay in the range of 2 to 4 µg/mL, the “MIC Enterococccus faecalis (GC 4553)” value lay within 2 to 4 µg/mL, the “MIC Enterococccus faecalis (GC 4554)” value lay in the range of 2 to 4 µg/mL and the “MIC Enterococccus faecalis (GC 6189)” value was in the range of 2 to 4 µg/mL. Moreover, in the data set with Enterococcus sp., the “MIC Enterococccus faecium (GC 2243)” value was in the range of 2 to 4 µg/mL, the “MIC Enterococccus faecium (GC 4556)” value lay within 2 to 4 µg/mL, the “MIC Enterococccus faecium (GC 4557)” value was 1 to 2 µg/mL and the “MIC Enterococcus faecalis (GC 2242)” value was 2 to 4 µg/mL. In addition, the “MIC Escherichia coli (GC 4560)” value against Escherichia coli is 0.5 to 1 µg/mL. Further, in the data set with Streptococcus sp., the “MIC Streptococcus pneumoniae (GC 1894)” value was under 0.06 µg/mL and the “MIC Streptococcus pneumonine (ATCC 6301)” value is under 0.06 µg/mL. In addition, the median effective dose (ED50), Enterococcus faecalis (GC 6189) in data set [2] was 1.04 mg/kg. Further, in data set [3], the “median effective dose (ED50), Staphylococcus aureus-SMITH (GC 4543)” value is recorded as 0.23-0.43. In data set [4], the “Anatomical Pathology (Day 10), Heart” value is given as “+++” and the “Anatomical Pathology (Day 10), Kidney” value is listed as “+++”.

Take `CC(C)CCC(=O)OC1C(CO)OC(OC2C(CO)OC(Oc3ccc(CC4NC(=O)C(C(C)c5ccccc5)NC(=O)CNC(=O)C(CO)NC(=O)C(C(O)C5CNC(=N)N5C5OC(CO)C(O)C(O)C5O)NC(=O)C(C(O)C5CNC(=N)N5)NC4=O)cc3)C(O)C2O)C(O)C1O` (stereo not drawn) [Example 270c, Cyclo[glycyl-β-methylphenylalanyl-O-[4-O-[4-O-(4-methylpentanoyl)hexopyranosyl]-hexopyranosyl]tyrosyl-3-(2-iminoimidazolidin-4-yl)seryl-3-(3-hexopyranosyl-2-iminoimidazolidin-4-yl)serylseryl]]: in the data set with Staphylococcus aureus, the “Zone of Inhibition vs. S. aureus” value is reported as 11 mm.

On to `CCC(C)CC(=O)OC1C(CO)OC(OC2C(CO)OC(Oc3ccc(CC4NC(=O)C(C(C)c5ccccc5)NC(=O)CNC(=O)C(CO)NC(=O)C(C(O)C5CNC(=N)N5C5OC(CO)C(O)C(O)C5O)NC(=O)C(C(O)C5CNC(=N)N5)NC4=O)cc3)C(O)C2O)C(O)C1O` (stereo not drawn) [Example 271c, Cyclo[glycyl-β-methylphenylalanyl-O-[4-O-[4-O-(3-methylpentanoyl)hexopyranosyl]-hexopyranosyl]tyrosyl-3-(2-iminoimidazolidin-4-yl)seryl-3-(3-hexopyranosyl-2-iminoimidazolidin-4-yl)serylseryl]], for which, in the data set with Staphylococcus aureus, the “Zone of Inhibition vs. S. aureus” value amounted to 12 mm.

Consider `CCCC(=O)OC1C(O)C(CO)OC(OC2C(CO)OC(Oc3ccc(CC4NC(=O)C(C(C)c5ccccc5)NC(=O)CNC(=O)C(CO)NC(=O)C(C(O)C5CNC(=N)N5C5OC(CO)C(O)C(O)C5O)NC(=O)C(C(O)C5CNC(=N)N5)NC4=O)cc3)C(O)C2O)C1O` (stereo not drawn) [Example 272b, Cyclo[glycyl-β-methylphenylalanyl-O-[4-O-(3-O-butanoyl-hexopyranosyl)-hexopyranosyl]tyrosyl-3-(2-iminoimidazolidin-4-yl)seryl-3-(3-hexopyranosyl-2-iminoimidazolidin-4-yl)serylseryl]], for which, in the data set on Staphylococcus aureus, the “Zone of Inhibition vs. S. aureus” value was 8 mm.

`CCCCCC(=O)OC1C(O)C(CO)OC(OC2C(CO)OC(Oc3ccc(CC4NC(=O)C(C(C)c5ccccc5)NC(=O)CNC(=O)C(CO)NC(=O)C(C(O)C5CNC(=N)N5C5OC(CO)C(O)C(O)C5O)NC(=O)C(C(O)C5CNC(=N)N5)NC4=O)cc3)C(O)C2O)C1O` (stereo not shown) [Example 273b]: the “Zone of Inhibition vs. S. aureus” value with Staphylococcus aureus was 9 mm and 8 mm.

For the compound `CCCCCCC(=O)OC1C(OC2C(CO)OC(Oc3ccc(CC4NC(=O)C(C(C)c5ccccc5)NC(=O)CNC(=O)C(CO)NC(=O)C(C(O)C5CNC(=N)N5C5OC(CO)C(O)C(O)C5O)NC(=O)C(C(O)C5CNC(=N)N5)NC4=O)cc3)C(O)C2O)OC(CO)C(O)C1O` (stereo not drawn) [Example 274a, Cyclo[glycyl-β-methylphenylalanyl-O-[4-O-(2-O-heptanoyl-hexopyranosyl)-hexopyranosyl]tyrosyl-3-(2-iminoimidazolidin-4-yl)seryl-3-(3-hexopyranosyl-2-iminoimidazolidin-4-yl)serylseryl]], in the data set with Staphylococcus aureus, the “Zone of Inhibition vs. S. aureus” value is on record as 9 mm.

Turning to `CCCCCCC(=O)OC1C(O)C(CO)OC(OC2C(CO)OC(Oc3ccc(CC4NC(=O)C(C(C)c5ccccc5)NC(=O)CNC(=O)C(CO)NC(=O)C(C(O)C5CNC(=N)N5C5OC(CO)C(O)C(O)C5O)NC(=O)C(C(O)C5CNC(=N)N5)NC4=O)cc3)C(O)C2O)C1O` (stereo not drawn) [Example 274b, Cyclo[glycyl-β-methylphenylalanyl-O-[4-O-(3-O-heptanoyl-hexopyranosyl)-hexopyranosyl]tyrosyl-3-(2-iminoimidazolidin-4-yl)seryl-3-(3-hexopyranosyl-2-iminoimidazolidin-4-yl)serylseryl]], the “Zone of Inhibition vs. S. aureus” value in the data set on Staphylococcus aureus is recorded as 10 mm.
